The values that follow come from US7070803B2 (Nycomed Austria GmbH, priority 2000, dated 2006).

Each structure is given as a SMILES string.

The nature of series [1]: Plasma pharmacokinetics after oral intake of midodrine (plain tablet / solution). The note with it: human, in vivo. The text has this: Considering the chronic nature of the diseases in question, which requires a long-term treatment as well as the correlation between plasma levels and the incidence and severity of adverse events, the development of a controlled release form is highly desired.

A short description of series [2]: Absorption of midodrine from the colon (plasma levels). The note with it: human, in vivo, tmax of desglymidodrine after colon absorption, midodrine absorbed in the colon.
The conditions of series [3]: doses used in clinical practise (10 mg t.i.d.); cited from earlier work.

For the compound `COc1ccc(OC)c(C(O)CN)c1` (stereo not drawn) [desglymidodrine, alpha-(aminomethyl)-2,5-dimethoxy-benzenemethanol], the results for the time to peak (Tmax) in series [1] and in series [2] were 1 h and roughly 3 h, respectively.

In the case of `COc1ccc(OC)c(C(O)CNC(=O)CN)c1` (stereo not drawn) [midodrine, 2-amino-N-[2-(2,5-dimethoxyphenyl)-2-hydroxyethyl]-acetamide], the “effect on standing blood pressure” value in series [3] is given as “significantly increase standing blood pressure”.

A word on the Tmax: it is the time at which the peak concentration occurs.
